37 molecules from US20260098026A1, “M4 ACTIVATORS/MODULATORS AND USES THEREOF” (Cerevel Therapeutics, LLC, priority 2022, published 2026) can be followed below.

The structures appear in SMILES notation.

Experiment [1] has as its target T1, M3 muscarinic acetylcholine receptor (mAChR) (Homo sapiens, UniProt P20309).
T1 construct: expressed in transfected cells; host or cells: CHO-K1
Kind of experiment: FLIPR calcium assay (Fluo 8), M3-overexpressing CHO-K1 cells. The format is cell-based. Summed up: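 CHO-K1 cells overexpressing each human receptor seeded at 15,000 per well, grown overnight at 37° C., 5% CO2, then loaded with Fluo-8 for 30 min. Compounds in HBSS added and calcium response read on FLIPR; EC50 and Emax calculated per subtype.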

In experiment [2] the target is T2, M4 mAChR (Homo sapiens, UniProt P08173).
T2 construct: expressed in transfected cells; host or cells: CHO-K1
T2 sequence (P08173 1-479): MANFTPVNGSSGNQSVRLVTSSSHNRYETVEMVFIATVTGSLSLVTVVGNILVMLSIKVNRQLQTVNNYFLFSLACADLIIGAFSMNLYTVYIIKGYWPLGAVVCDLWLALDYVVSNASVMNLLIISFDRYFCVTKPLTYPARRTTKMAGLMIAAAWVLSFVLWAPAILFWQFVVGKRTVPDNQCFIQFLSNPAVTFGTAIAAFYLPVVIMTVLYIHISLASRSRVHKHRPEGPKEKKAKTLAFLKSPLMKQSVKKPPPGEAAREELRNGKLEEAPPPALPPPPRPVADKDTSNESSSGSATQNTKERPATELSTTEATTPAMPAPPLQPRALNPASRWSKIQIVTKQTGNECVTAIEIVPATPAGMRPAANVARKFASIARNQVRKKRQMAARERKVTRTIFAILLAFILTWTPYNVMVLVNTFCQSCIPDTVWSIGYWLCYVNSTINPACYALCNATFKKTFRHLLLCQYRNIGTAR
Kind of experiment: cAMP TR-FRET assay with forskolin, M4-overexpressing CHO-K1 cells. In kind it is cell-based. The method in brief: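 CHO-K1 cells overexpressing the receptor were stimulated with forskolin to raise cAMP, so that Gi-mediated agonist decreases could be measured. cAMP was quantified by TR-FRET competition between cellular cAMP and labelled donor for anti-cAMP antibody, giving potency and efficacy.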
(In TR-FRET formats the signal depends on donor and acceptor labels being close together.)

T1 sequence (P20309 whole entry): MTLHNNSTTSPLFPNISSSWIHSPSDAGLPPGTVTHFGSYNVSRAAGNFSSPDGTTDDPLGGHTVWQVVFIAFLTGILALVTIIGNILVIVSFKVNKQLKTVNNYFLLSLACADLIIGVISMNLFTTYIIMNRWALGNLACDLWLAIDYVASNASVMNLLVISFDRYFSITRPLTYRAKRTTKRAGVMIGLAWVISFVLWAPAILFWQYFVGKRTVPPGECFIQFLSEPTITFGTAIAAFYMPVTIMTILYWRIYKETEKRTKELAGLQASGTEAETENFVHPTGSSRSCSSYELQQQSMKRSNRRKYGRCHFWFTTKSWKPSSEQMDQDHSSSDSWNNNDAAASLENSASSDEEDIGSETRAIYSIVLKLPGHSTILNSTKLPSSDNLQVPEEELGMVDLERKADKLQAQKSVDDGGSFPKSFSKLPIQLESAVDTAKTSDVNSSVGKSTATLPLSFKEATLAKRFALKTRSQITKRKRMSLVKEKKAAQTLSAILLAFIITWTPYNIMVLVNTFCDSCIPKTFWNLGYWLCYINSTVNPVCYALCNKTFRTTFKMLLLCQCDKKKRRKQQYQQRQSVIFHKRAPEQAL

Consider `CCOC(=O)N1CC2(CC[C@@H](N3CCN(c4cc(F)cnc4-c4cccc(C)n4)CC3)C2)C1` [Compound A135], for which the concentration for a half-maximal effect (EC50) (commonly the midpoint of the concentration-response curve) in experiment [1] (FLIPR calcium) is above 10 µM. The Emax (commonly the size of the effect at its maximum, as opposed to the concentration needed) in experiment [2] (cAMP TR-FRET with forskolin) was 19 to 49.9%.
On the same counts, the results for `CCOC(=O)N1CC2(CC[C@@H](N3CCN(c4cc(F)cnc4-c4ccc(O)cc4F)CC3)C2)C1` [Compound A136] are above 10 µM and 80 to 100%.
For `CCOC(=O)N1CC2(CC[C@@H](N3CCN(c4cc(F)cnc4-c4ccc(OC)nc4C)CC3)C2)C1` [Compound A137], in that order: above 10 µM and 80 to 100%.
For `CCOC(=O)N1CC2(CC[C@@H](N3CCN(c4cc(F)cnc4-c4cncc(COC)c4)CC3)C2)C1` [Compound A138], in that order: above 10 µM and 80 to 100%.
As to `CCOC(=O)N1CC2(CC[C@@H](N3CCN(c4cc(F)cnc4-c4cc(C)cc(CO)c4)CC3)C2)C1` [Compound A141], the EC50 in experiment [1] (FLIPR calcium) was above 10 µM. The same molecule showed an Emax in experiment [2] (cAMP TR-FRET with forskolin) of 80 to 100%.
Take `CCOC(=O)N1CC2(CC[C@@H](N3CCN(c4cc(F)cnc4-c4cccc(O)c4F)CC3)C2)C1` [Compound A142]: the 50% effective concentration (EC50) in experiment [1] (FLIPR calcium) is above 10 µM. Also, the Emax in experiment [2] (cAMP TR-FRET with forskolin) lay within 80 to 100%.
Take `CCOC(=O)N1CC2(CC[C@@H](N3CCN(c4cc(F)cnc4-c4cccc(O)n4)CC3)C2)C1` [Compound A143]: the concentration for a half-maximal effect (EC50) in experiment [1] (FLIPR calcium) is above 10 µM. The Emax in experiment [2] (cAMP TR-FRET with forskolin) lay within 80 to 100%.
On the same counts, the results for `CCOC(=O)N1CC2(CC[C@@H](N3CCN(c4cc(F)cnc4-c4cc(C)nn4C)CC3)C2)C1` [Compound A144] are above 10 µM and 80 to 100%.
On the same counts, the results for `CCOC(=O)N1CC2(CC[C@@H](N3CCN(c4cc(F)cnc4-c4ccc(OC)cc4CO)CC3)C2)C1` [Compound A145] are above 10 µM and 80 to 100%.
On the same counts, the results for `CCOC(=O)N1CC2(CC[C@@H](N3CCN(c4cc(F)cnc4-c4ccc(F)cc4CO)CC3)C2)C1` [Compound A147] are above 10 µM and 80 to 100%.
Take `CCOC(=O)N1CC2(CC[C@@H](N3CCN(c4cc(F)cnc4-c4ccc5nc[nH]c5c4)CC3)C2)C1` [Compound A148]: the concentration giving a half-maximal response (EC50) in experiment [1] (FLIPR) was above 10 µM. The same molecule returned a maximal effect (Emax) in experiment [2] (cAMP assay) of 80 to 100%.
On the same counts, the results for `CCOC(=O)N1CC2(CC[C@@H](N3CCN(c4cc(F)cnc4-c4ccc(C)c(CO)c4)CC3)C2)C1` [Compound A150] are above 10 µM and 50 to 79.9%.
For `CCOC(=O)N1CC2(CC[C@@H](N3CCN(c4cc(F)cnc4-c4ccc(OC)cc4C#N)CC3)C2)C1` [Compound A152], in that order: above 10 µM and 80 to 100%.
For `CCOC(=O)N1CC2(CC[C@@H](N3CCN(c4cc(F)cnc4-c4cc(F)ncc4F)CC3)C2)C1` [Compound A153], in that order: above 10 µM and 80 to 100%.
For `CCOC(=O)N1CC2(CC[C@@H](N3CCN(c4cc(F)cnc4-c4cc(F)cc(CO)c4)CC3)C2)C1` [Compound A154], the 50% effective concentration (EC50) in experiment [1] (FLIPR) is above 10 µM. For the same molecule, in experiment [2] (cAMP assay), the maximal effect (Emax) was 80 to 100%.
For `CCOC(=O)N1CC2(CC[C@@H](N3CCN(c4cc(F)cnc4-c4ccc(=O)n(CC)c4)CC3)C2)C1` [Compound A155], in that order: above 10 µM and 80 to 100%.
For `CCOC(=O)N1CC2(CC[C@@H](N3CCN(c4cc(F)cnc4-c4ccc(F)c(O)c4)CC3)C2)C1` [Compound A156], in that order: above 10 µM and 80 to 100%.
For `CCOC(=O)N1CC2(CC[C@@H](N3CCN(c4cc(F)cnc4-c4cn(C)nc4C)CC3)C2)C1` [Compound A157], in that order: above 10 µM and 80 to 100%.
Turning to `CCOC(=O)N1CC2(CC[C@@H](N3CCN(c4cc(F)cnc4-c4ccc5c[nH]nc5c4)CC3)C2)C1` [Compound A159], in experiment [1] (FLIPR), the half-maximal effective concentration (EC50) is above 10 µM. This molecule displayed an Emax in experiment [2] (cAMP assay) of 80 to 100%.
For `CCOC(=O)N1CC2(CC[C@@H](N3CCN(c4cc(F)cnc4-c4cnn5c4CCCC5)CC3)C2)C1` [Compound A160], in that order: above 10 µM and 80 to 100%.
On the same counts, the results for `CCOC(=O)N1CC2(CC[C@@H](N3CCN(c4cc(F)cnc4-c4ccc(F)nc4C)CC3)C2)C1` [Compound A161] are above 10 µM and 80 to 100%.
For `CCOC(=O)N1CC2(CC[C@@H](N3CCN(c4cc(F)cnc4-c4cccc(F)c4CO)CC3)C2)C1` [Compound A162], in that order: above 10 µM and 80 to 100%.
Take `CCOC(=O)N1CC2(CC[C@@H](N3CCN(c4cc(F)cnc4-c4ccnc(F)c4OC)CC3)C2)C1` [Compound A163]: the EC50 in experiment [1] (FLIPR) is above 10 µM. This molecule also returned an Emax in experiment [2] (cAMP assay) of 80 to 100%.
Turning to `CCOC(=O)N1CC2(CC[C@@H](N3CCN(c4cc(F)cnc4-c4cn(C)c5ncccc45)CC3)C2)C1` [Compound A164], the EC50 in experiment [1] (FLIPR) is above 10 µM. In experiment [2] (cAMP assay), this molecule gave an Emax of 50 to 79.9%.
On the same counts, the results for `CCOC(=O)N1CC2(CC[C@@H](N3CCN(c4cc(F)cnc4-c4ccn5nccc5c4)CC3)C2)C1` [Compound A165] are above 10 µM and 80 to 100%.
On the same counts, the results for `CCOC(=O)N1CC2(CC[C@@H](N3CCN(c4cc(F)cnc4-c4c(O)cccc4F)CC3)C2)C1` [Compound A167] are above 10 µM and 80 to 100%.
On the same counts, the results for `CCOC(=O)N1CC2(CC[C@@H](N3CCN(c4cc(F)cnc4-c4cnn(COC)c4)CC3)C2)C1` [Compound A168] are above 10 µM and 80 to 100%.
In the case of `CCOC(=O)N1CC2(CC[C@@H](N3CCN(c4cc(F)cnc4-c4ccc(CCO)cc4)CC3)C2)C1` [Compound A169], the concentration giving a half-maximal response (EC50) in experiment [1] (FLIPR) was above 10 µM. The maximal response (Emax) in experiment [2] (cAMP assay) was in the range of 80 to 100%.
Consider `CCOC(=O)N1CC2(CC[C@@H](N3CCN(c4cc(F)cnc4-c4c[nH]nc4C4CC4)CC3)C2)C1` [Compound A170], for which the concentration giving a half-maximal response (EC50) in experiment [1] (FLIPR) is above 10 µM. Also, in experiment [2] (cAMP assay), the Emax lay in the range of 80 to 100%.
On the same counts, the results for `CCOC(=O)N1CC2(CC[C@@H](N3CCN(c4cc(F)cnc4-c4cnn(CCF)c4)CC3)C2)C1` [Compound A171] are above 10 µM and 80 to 100%.
For `CCOC(=O)N1CC2(CC[C@@H](N3CCN(c4cc(F)cnc4-c4cnn(CC(F)F)c4)CC3)C2)C1` [Compound A172], in that order: above 10 µM and 80 to 100%.
On the same counts, the results for `CCOC(=O)N1CC2(CC[C@@H](N3CCN(c4cc(F)cnc4-c4cnn5c4OCCC5)CC3)C2)C1` [Compound A173] are above 10 µM and 50 to 79.9%.
As for `CCOC(=O)N1CC2(CC[C@@H](N3CCN(c4cc(F)cnc4-c4cncc(N)c4)CC3)C2)C1` [Compound A174], the EC50 in experiment [1] (FLIPR) is above 10 µM. This molecule also displayed a maximal response (Emax) in experiment [2] (cAMP assay) of 80 to 100%.
On the same counts, the results for `CCOC(=O)N1CC2(CC[C@@H](N3CCN(c4cc(F)cnc4-c4cc(O)ncc4F)CC3)C2)C1` [Compound A175] are above 10 µM and 80 to 100%.
For `CCOC(=O)N1CC2(CC[C@@H](N3CCN(c4cc(F)cnc4-c4ccc5c(c4)nnn5C)CC3)C2)C1` [Compound A176], in that order: above 10 µM and 80 to 100%.
For `CCOC(=O)N1CC2(CC[C@@H](N3CCN(c4cc(F)cnc4-c4ccn5ncnc5c4)CC3)C2)C1` [Compound A177], in that order: above 10 µM and 80 to 100%.
Regarding `CCOC(=O)N1CC2(CC[C@@H](N3CCN(c4cc(F)cnc4-c4cccc5ncnn45)CC3)C2)C1` [Compound A178], the EC50 in experiment [1] (FLIPR) was above 10 µM. The molecule also yielded a maximal response (Emax) in experiment [2] (cAMP assay) of 19 to 49.9%.
